Results as given in US5723139A, “Skin care compositions containing a polycyclic triterpene carboxylic acid and a retinoid” (Chesebrough-Pond's USA Co., Division of Conopco, Inc., priority 1996, dated 1998).
“Also recorded” adds a separate entry of the source.

What was measured:
[1] = tested on: human keratinocyte transglutaminase I (TGase I); assay: Transglutaminase I ELISA in cultured keratinocytes, normalized to DNA content (Examples 2 and 3 procedure); format: cell-based; conditions: for mean TGase/DNA × 10^5 ± s.d / effect on keratinocyte TG1 level / differentiation (in words) / activity at 1 µM / activity at 0.25 µM / activity at 0.0025 µM: 72 hours; for mean TGase/DNA × 10^5 ± s.d / activity at 1 µM / activity at 0.25 µM / activity at 0.0025 µM: n = 3; for activity at 1 µM / activity at 0.25 µM / activity at 0.0025 µM: Homo sapiens, Keratinocyte, % of control; for activity at 0.25 µM: Example 3, Table 3; for activity at 0.0025 µM: Example 2, Table 2; for effect on keratinocyte differentiation / transglutaminase I levels (in words, summary): summary of Examples 1-3
Procedure: Human keratinocytes, isolated from neonatal foreskin by trypsin treatment were grown in Dulbecco Modification Eagle (DME) Hams F12 (1:1) medium/10% fetal calf serum in the presence of irradiated 3T3 mouse fibroblasts for establishing dividing keratinocyte colonies. Cells were grown under the above condition until their second passage and kept frozen for future use. Frozen second passage keratinocytes were thawed and plated into the above medium and grown for five days before they were switched to a serum-free MCDB 153-based medium keratinocyte growth medium (KGM) from Clonetics Corporation, San Diego, Calif., containing 0.15 mM Ca, or keratinocyte serum-free media (KSFM) from GIBCO containing 0.09 mM Ca). On day 7, when the cells were 80-90% confluent, they were trypsinized and plated in the serum-free medium for the various experiments.
During the process of terminal differentiation in the epidermis, a 15 nm thick layer of protein, known as the cornified envelope (CE) is formed on the inner surface of the cell periphery. The CE is composed of numerous distinct proteins which have been cross-linked together by the formation of N^ε -(γ-glutamyl) lysine isodipeptide bonds catalyzed by the action of at least two different transglutaminases (TGases) expressed in the epidermis. TGase I is expressed in abundance in the differentiated layers of the epidermis, especially the granular layer, but is absent in the undifferentiated basal epidermis. Thus TGase I is a useful marker of epidermal keratinocyte differentiation with high TGase I levels indicating a more differentiated state. An ELISA based TGase I assay, using a TGase I antibody, was used to assess the state of differentiation of the cultured keratinocytes in the examples that follow.
Keratinocytes (cultured as described above) were plated in 96 well plates at a density of 3,000 cells per well in 200 μl of cell culture media. After incubation for four days, the media was changed to media containing test compounds (six replicates per test). The cells were cultured for a further 72 hours after which time the media was aspirated and the plates stored at -70° C. After the plates were removed from the freezer, the cells were further freezed fractured by freezing and thawing and then washed 3x with PBS. The cells were incubated for one hour at room temperature (R/T) with TBS/5% BSA buffer. Cells were then incubated with 100 μl of monoclonal anti-human transglutaminase (IgG) mouse antibody (primary antibody) obtained from Biomedical Technologies Inc. diluted 1:2000 in TBS/1% BSA buffer for two hours at 37° C., and then rinsed six times with wash buffer (TBS/1% BSA/0.05% Tween-20). Cells were next incubated with 100 μl of Fab fragment, peroxidase conjugated anti-mouse IgG antibody (secondary antibody) from Amersham diluted 1:4,000 in wash buffer for two hours at 37° C. and then rinsed three times with wash buffer and three times with PBS. Cells were incubated with substrate solution (4mg o-phenylene diamine and 3.3 μl 30% H2 O2 in 10 mL 0.1M citrate buffer, pH 5.0) for five minutes at R/T and in darkness (under aluminum foil). The reaction was stopped by the addition of 50 μl 4N H2SO4. The absorbance of samples was read at 492 nm in the plate reader. Out of the six replicates, four were treated with both antibodies, two were treated only with the secondary antibody (i.e., to determine the background binding of the enzyme conjugated antibody). Transglutaminase I levels were determined by subtracted background from the readings from each treatment and determining the mean s.d. for the replicates exposed to both antibodies.
The level of TGase-1 detected after treatment of the cells could be influenced by cell number, i.e., the greater the number of cells the greater the level of TGase-1 detected. The level of TGase-1 was normalized to DNA content of the cells in the same well thus eliminating variation due to differences in cell number. […]

[2] = tested on: human keratinocyte transglutaminase I (TGase I); assay: Transglutaminase I ELISA in cultured keratinocytes, normalized to DNA content (Example 1 procedure); format: cell-based; conditions: 2.5×10^-7 M, 2.5×10^-8 M and 2.5×10^-9 M, vs ethanol control
Procedure: Human keratinocytes, isolated from neonatal foreskin by trypsin treatment were grown in Dulbecco Modification Eagle (DME) Hams F12 (1:1) medium/10% fetal calf serum in the presence of irradiated 3T3 mouse fibroblasts for establishing dividing keratinocyte colonies. Cells were grown under the above condition until their second passage and kept frozen for future use. […] On day 7, when the cells were 80-90% confluent, they were trypsinized and plated in the serum-free medium for the various experiments.
During the process of terminal differentiation in the epidermis, a 15 nm thick layer of protein, known as the cornified envelope (CE) is formed on the inner surface of the cell periphery. […]
Keratinocytes (cultured as described above) were plated in 96 well plates at a density of 3,000 cells per well in 200 μl media. […] The absorbance of samples was read at 492 nm in the plate reader. […] TGase levels were determined by subtracting background from the readings from each treatment and determining mean±s.d. for the replicates exposed to both Ab.
The level of TGase-1 was normalized to DNA content of the cells in the same well thus eliminating variation due to differences in cell number. DNA quantitation is a particularly useful indicator of cell number, including keratinocyte cell number, because each cell has to all intents and purposes an identical genome and therefore an identical quantity of DNA. […]

skin keratinocytes = assay: Thymidine incorporation / proliferation of skin keratinocytes; format: cell-based, human; conditions: summary of Examples 1-3
[3] = Example 3, 2.5×10^-7 M retinoic acid or retinol, 10^-6 M oleanolic acid
[4] = Example 2, 2.5×10^-9 M retinoic acid or retinol, 10^-6 M glycyrrhizic acid

SMILES	mean TGase/DNA × 10^5 ± s.d ([1]; 10^-6 M, Table 3)	effect on keratinocyte TG1 level / differentiation (in words) [1, 3]	activity at 1 µM ([1]; 10^-6 M, Table 3)	effect on keratinocyte differentiation / transglutaminase level (in words) [2]	effect on thymidine incorporation / keratinocyte proliferation (in words) (skin keratinocytes)	mean TGase/DNA × 10^5 ± s.d ([1]; 2.5 × 10^-7 M, Table 3)	mean TGase/DNA × 10^5 ± s.d ([1]; 2.5 × 10^-9 M, Table 2)	effect on keratinocyte TG1 level / differentiation (in words) [1, 4]	activity at 0.25 µM ([1]; 2.5 × 10^-7 M)	activity at 0.0025 µM ([1]; 2.5 × 10^-9 M)	effect on keratinocyte differentiation / transglutaminase I levels (in words, summary) [1]	mean TGase/DNA × 10^5 ± s.d ([1]; 10^-6 M, Table 2)	activity at 1 µM ([1]; 10^-6 M, Table 2)
CC1(C)CC[C@]2(C(=O)O)CC[C@]3(C)C(=CC[C@@H]4[C@@]5(C)CC[C@H](O)C(C)(C)[C@@H]5CC[C@]43C)[C@@H]2C1 [Oleanolic Acid, Oleanolic acid]	20.95 ± 1.95 × 10^5	only a very slight inhibitory effect on the keratinocyte TG1 level	93%	–	–	–	–	–	–	–	–	–	–
CC1=C(/C=C/C(C)=C/C=C/C(C)=C/C(=O)O)C(C)(C)CCC1 [RA, Retinoic acid, reference compound]	–	very effective at repressing keratinocyte TG1 levels	–	decreased keratinocyte differentiation; also recorded: dose dependent	increased thymidine incorporation	9.95 ± 2.74 × 10^5	4.04 ± 1.23 × 10^5	very effective at repressing keratinocyte TG1 levels	44%	33%	decreased transglutaminase I levels	–	–
CC1=C(/C=C/C(C)=C/C=C/C(C)=C/CO)C(C)(C)CCC1 [ROH, Retinol]	–	less effective than retinoic acid	–	dose dependent	–	18.27 ± 3.30 × 10^5	8.29 ± 2.11 × 10^5	less effective than retinoic acid	81%	68%	significantly less effective than retinoic acid at inhibiting keratinocyte differentiation	–	–
CC1(C)[C@@H](O[C@H]2O[C@H](C(=O)O)[C@@H](O)[C@H](O)[C@H]2O[C@@H]2O[C@H](C(=O)O)[C@@H](O)[C@H](O)[C@H]2O)CC[C@]2(C)[C@H]3C(=O)C=C4[C@@H]5C[C@@](C)(C(=O)O)CC[C@]5(C)CC[C@@]4(C)[C@]3(C)CC[C@@H]12 [Glycyrrhizic acid]	–	–	–	–	–	–	–	no inhibitory effect on the keratinocyte TG1 level	–	–	–	11.98 ± 3.00 × 10^5	99%
